From patent US6608061B2, “Bisaryl compound and medicament for cancer treatment comprising the same” (Kyoma Hakko Kogyo Co., Ltd., priority 1997, dated 2003)
pIC50: −log10 of the molar value. Read-outs that look alike come from different tables or passages of the source.

Columns and labels:
HeLa S3 cells = test: Test for growth inhibition of HeLa S3 cells; assay type: cell-based; details: Homo sapiens, HeLa S3, 72 h, HeLa S3 cells, 72 hours with test compound, Cell Proliferation Kit II; read-out: Cell growth inhibition (IC50)
Procedure: Test for Growth Inhibition of Hela S3 Cells
HeLa S3 cells prepared at 1×10^4 cells/ml in MEM culture medium containing 10% fetal bovine serum and 2 mM glutamine were added to each well of a 96-well microtiter plate (0.1 ml for each well). The cells were cultured at 37° C. in a CO2 incubator for 24 hours, and then 0.05 ml of test compound appropriately diluted with the above medium was added to each well, and then the mixture was cultured at 37° C. in a CO2 incubator for 72 hours. After the culture supernatant was removed, each well was washed with 0.1 ml of PBS buffer twice, and 0.1 ml of the aforementioned medium was added to each well again.
Cell Proliferation Kit II (Boehringer Mennheim) was used for measurement of cell number in each well. After a coloring reaction reagent was added, the plate was warmed to 37° C. in a CO2 incubator for 3 hours. Then, absorbances at 490 nm and 655 nm were measured by a microplate reader, and a value (difference of absorbance) was calculated for each well by subtracting the absorbance at […] from the absorbance at 490 nm. By comparing the differences of absorbance for cells without treatment and cells treated with a test compound at a known concentration, a concentration of test compound which inhibited the cell growth by 50% was calculated, and the value obtained was determined as IC50. The values of RNR inhibitory activity obtained in Example 8, and the values of cell growth inhibitory activity obtained in Example 9 are shown in the following tables (the compound numbers used in the tables correspond to the compound numbers shown in the aforementioned tables).

[1] = system: human ovary cancer A2780 cells; test: Antineoplastic effect against human ovary cancer A2780 cells transplanted to nude mice; assay type: in vivo, nude mice BALB/cAJcl-nu; details: Mus musculus, ip, A2780 s.c. in nude mice, read-out: Antitumor activity T/C; for response vs control in vivo at 500 mg/kg/day: 500 mg/kg/day intraperitoneally once a day for 5 days
Source text: Antineoplastic Effect Against Human Ovary Cancer A2780 Cells
2 mm cubes (tumor fragments of 8 mm^3) of human ovary cancer A2780 cells were subcutaneously transplanted to nude mice BALB/cAJcl-nu (CLEA JAPAN) in the abdomens. When the tumor volume reached to from 50 to 300 mm^3 after the transplantation, the mice were arbitrarily divided into groups each consisting of 5 mice, and intraperitoneally administered with a drug solution once a day for 5 days. After weighing compounds, the drug solution was prepared before use by dissolving the drug in 99.5% ethanol (final concentration: 5%, analytical grade, Kanto Kagaku) or N,N-dimethylacetamide (final concentration: 5%, analytical grade, Kanto Kagaku), adding CREMOPHOR EL (a derivative of caster oil and ethylene oxide, final concentration: 10%, Sigma Chemical) to the solution, and suspending the solution in physiological saline (Otsuka Physiological Saline for Injection, Otsuka Pharmaceutical). For evaluation of the effect, a tumor volume was calculated in accordance with Equation 1, a ratio of tumor volume (V) after the administration of drug solution to tumor volume (V0) before the administration of drug solution was calculation (V/V0), and the ratio was compared with that for the untreated group to determine T/C (Equation 2). In the table, administration dose, T/C and evaluation day are shown. [formula]

[2] = target: T1, human RNR (purified R1 and R2 subunits) (Homo sapiens, UniProt P23921+P31350); test: In vitro measurement of human RNR inhibitory activity (conversion of CDP to dCDP, HPLC); assay type: biochemical; details: 100 μM CDP, 37° C., 30 minutes, read-out: RNR Inhibition (IC50)
T1 construct: made in house; host or cells: Escherichia coli BL21(λDE3)pLysS, plasmids pETR1 and pETR2 (pET3a backbone)
T1 sequence (P23921 1-792): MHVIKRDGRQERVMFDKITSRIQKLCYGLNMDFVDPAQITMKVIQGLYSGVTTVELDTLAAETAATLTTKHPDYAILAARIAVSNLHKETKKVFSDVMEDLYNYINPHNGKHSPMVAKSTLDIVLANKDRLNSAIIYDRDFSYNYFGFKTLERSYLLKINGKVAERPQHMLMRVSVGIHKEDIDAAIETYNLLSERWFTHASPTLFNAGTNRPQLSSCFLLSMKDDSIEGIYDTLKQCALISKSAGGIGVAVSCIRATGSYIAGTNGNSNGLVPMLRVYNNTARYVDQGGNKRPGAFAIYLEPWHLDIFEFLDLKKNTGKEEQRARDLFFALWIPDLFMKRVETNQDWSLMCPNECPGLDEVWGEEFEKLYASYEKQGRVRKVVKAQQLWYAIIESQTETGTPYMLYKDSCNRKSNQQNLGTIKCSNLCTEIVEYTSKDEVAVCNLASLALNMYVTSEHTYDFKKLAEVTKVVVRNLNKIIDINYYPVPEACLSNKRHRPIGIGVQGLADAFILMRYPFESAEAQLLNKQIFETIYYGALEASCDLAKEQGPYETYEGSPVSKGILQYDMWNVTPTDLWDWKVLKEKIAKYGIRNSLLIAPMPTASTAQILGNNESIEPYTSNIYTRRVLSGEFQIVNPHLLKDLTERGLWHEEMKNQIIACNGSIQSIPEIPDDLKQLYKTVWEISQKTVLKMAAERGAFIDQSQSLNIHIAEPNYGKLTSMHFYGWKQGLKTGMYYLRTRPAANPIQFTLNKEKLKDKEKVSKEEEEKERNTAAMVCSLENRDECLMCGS
T1 sequence (P31350 1-389): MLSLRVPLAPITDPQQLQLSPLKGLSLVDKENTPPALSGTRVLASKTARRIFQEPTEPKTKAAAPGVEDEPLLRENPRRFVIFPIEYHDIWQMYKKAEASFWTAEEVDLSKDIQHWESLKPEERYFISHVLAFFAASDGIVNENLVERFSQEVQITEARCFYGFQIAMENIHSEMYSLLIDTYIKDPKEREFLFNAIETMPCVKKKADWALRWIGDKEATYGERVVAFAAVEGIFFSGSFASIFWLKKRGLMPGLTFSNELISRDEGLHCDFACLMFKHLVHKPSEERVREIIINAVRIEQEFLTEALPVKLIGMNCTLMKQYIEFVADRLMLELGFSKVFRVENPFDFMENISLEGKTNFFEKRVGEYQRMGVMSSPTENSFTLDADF

Row | Compound | pIC50 (HeLa S3 cells) | pIC50 [2] | response vs control in vivo at 250 mg/kg/day ([1]; 96 h, 250 mg/kg/day intraperitoneally once a day for 5 days, evaluation day 4) [%] | response vs control in vivo at 500 mg/kg/day ([1]; 168 h, evaluation day 7) [%] | response vs control in vivo at 500 mg/kg/day ([1]; 96 h, evaluation day 4) [%]
1 | CC(C)(CSc1ccc(O)cc1)C(=O)N1CCN(C(=O)C(C)(C)CSc2ccc(O)cc2)CC1 [Compound 227] |  |  |  | 53 | 
2 | N=C(N)NCCN(CCSc1ccc(O)cc1)CCSc1ccc(O)cc1 [Compound 202] | 4.37 | 5.73 |  |  | 
3 | Oc1ccc(SCCCCCCCSc2ccc(O)cc2)cc1 [Compound 138] | 4.74 | 5.64 |  |  | 
4 | CC[N+](CC)(CC)CCCN(CCSc1ccc(O)cc1)CCSc1ccc(O)cc1 [Compound 213] | 3.74 | 5.69 |  |  | 
5 | Oc1ccc(SCc2ccccc2CSc2ccc(O)cc2)cc1 [Compound 161] | 4.47 | 5.95 |  |  | 
6 | Oc1ccc(SCCN(CCSc2ccc(O)cc2)Cc2ccc3ccccc3n2)cc1 [Compound 101] | 4.89 | 5.30 |  |  | 
7 | Oc1ccc(SCCN(CCSc2ccc(O)cc2)Cc2ccc(F)cc2)cc1 [Compound 106] | 5.17 | 5.33 |  |  | 
8 | Oc1ccc(SCCN(CCSc2ccc(O)cc2)Cc2ccccc2F)cc1 [Compound 105] | 5.04 | 5.40 |  |  | 
9 | Oc1ccc(SCCCCCCSc2ccc(O)cc2)cc1 [Compound 137] | 5.26 | 6.06 |  |  | 
10 | OC[C@H]1OC(N(CCSc2ccc(O)cc2)CCSc2ccc(O)cc2)[C@H](O)[C@@H](O)[C@@H]1O (some centres unmarked) [Compound 215] | 4.90 | 5.43 |  |  | 
11 | OC[C@@H]1OC(N(CCSc2ccc(O)cc2)CCSc2ccc(O)cc2)[C@@H](O)[C@H](O)[C@H]1O (some centres unmarked) [Compound 216] | 4.94 | 5.44 |  |  | 
12 | CS(=O)(=O)N(CCSc1ccc(O)cc1)CCSc1ccc(O)cc1 [Compound 118] | 5.11 | 5.16 |  |  | 
13 | CC1CCc2ccccc2N1C(=O)N(CCSc1ccc(O)cc1)CCSc1ccc(O)cc1 (centres unmarked) [Compound 58] | 4.73 | 5.32 |  |  | 
14 | Oc1ccc(SCCCCCSc2ccc(O)cc2)cc1 [Compound 136] | 5.04 | 6.16 |  |  | 
15 | Oc1ccc(SCSCSc2ccc(O)cc2)cc1 [Compound 158] | 4.90 | 5.85 |  |  | 
16 | Oc1ccc(SCCOCCOCCOCCOCCSc2ccc(O)cc2)cc1 [Compound 172] | 4.71 | 5.58 |  |  | 

Continued, in another order:

Row | pIC50 (HeLa S3 cells) | pIC50 [2] | Compound | response vs control in vivo at 250 mg/kg/day ([1]; 96 h, 250 mg/kg/day intraperitoneally once a day for 5 days, evaluation day 4) [%] | response vs control in vivo at 500 mg/kg/day ([1]; 168 h, evaluation day 7) [%] | response vs control in vivo at 500 mg/kg/day ([1]; 96 h, evaluation day 4) [%]
17 | 6.44 |  | CC(=O)Oc1ccc(SCCN(CCSc2ccc(OC(C)=O)cc2)CC(N)=O)cc1 [Compound 193] | 46 |  | 
18 | 5.40 | 6.34 | Oc1ccc(CN(CCSc2ccc(O)cc2)CCSc2ccc(O)cc2)cc1 [Compound 94] |  | 53 | 
19 | 5.62 | 7.22 | N#CCN(CCSc1ccc(O)cc1)CCSc1ccc(O)cc1 [Compound 77] |  |  | 54
20 | 5.76 | 5.68 | COCCCN(CCSc1ccc(O)cc1)CCSc1ccc(O)cc1 [Compound 103] |  |  | 50
21 | 5.85 | 6.16 | OCCN(CCSc1ccc(O)cc1)CCSc1ccc(O)cc1 [Compound 102] |  | 47 | 
22 | 5.29 | 5.76 | Oc1ccc(SCCN(O)CCSc2ccc(O)cc2)cc1 [Compound 48] |  | 54 | 
23 | 5.51 | 5.86 | CN(C)C(=O)CCN(CCSc1ccc(O)cc1)CCSc1ccc(O)cc1 [Compound 79] |  |  | 40
24 | 6.44 | 6.37 | CNCC(=O)Oc1ccc(SCCN(CCSc2ccc(OC(=O)CNC)cc2)CC(N)=O)cc1 [Compound 222] |  |  | 
25 | 5.52 | 5.38 | O=C(c1cccnc1)N(CCSc1ccc(O)cc1)CCSc1ccc(O)cc1 [Compound 116] |  |  | 
26 | 5.35 | 5.55 | O=C(NCCCSc1ccc(O)cc1)C1(C(=O)NCCCSc2ccc(O)cc2)CCCC1 [Compound 192] |  |  | 
27 | 5.57 | 5.77 | Oc1ccc(SCCN(CCSc2ccc(O)cc2)Cc2ccncc2)cc1 [Compound 91] |  |  | 48
28 | 5.69 | 6.17 | Oc1ccc(SCCCSc2ccc(O)cc2)cc1 [Compound 134] |  |  | 
29 | 5.42 | 5.50 | O=C1CCC(=O)N1CCN(CCSc1ccc(O)cc1)CCSc1ccc(O)cc1 [Compound 86] |  |  | 
30 | 5.49 | 5.75 | Oc1ccc(SCCN(CCSc2ccc(O)cc2)CC2OCCO2)cc1 [Compound 88] |  |  | 
31 | 5.47 | 5.82 | N#CCCN(CCC#N)C(=O)CN(CCSc1ccc(O)cc1)CCSc1ccc(O)cc1 [Compound 204] |  |  | 
32 | 5.39 | 5.49 | COCCOCCOCCN(CCSc1ccc(O)cc1)CCSc1ccc(O)cc1 [Compound 197] |  |  | 
33 | 5.77 | 6.06 | O=C(CN(CCSc1ccc(O)cc1)CCSc1ccc(O)cc1)NCCO [Compound 207] |  |  | 
34 | 5.79 | 6.22 | C#CCN(CCSc1ccc(O)cc1)CCSc1ccc(O)cc1 [Compound 73] |  |  | 
